Experimental data from patent US8420657B2 (Novartis AG, priority 2008, dated 2013).
pIC50: −log10 of the molar value.

Tests used:
[1] = system: JAK2-dependent nuclear translocation of STAT5-GFP in U-2 OS osteosarcoma cells; experiment: STAT5 nuclear translocation assay (Cellomics), rhEpo stimulated U-2 OS STAT5-GFP cells; type: cell-based; settings: Homo sapiens, U2OS; STAT5 translocation pathway
Source text: The medium-throughput (96-well format) cellular automated fluorescence microscopy Cellomics assay can be routinely used to assess the functional activation of Janus Kinases (JAKs), based on the nuclear translocation of their substrate, Signal Transducer and Activator of Transcription (STAT). Nuclear translocation can be monitored either in HT1080 fibrosarcoma cells stably transfected with STAT1 fused to Green Fluorescence Protein (GFP) or in U-2 OS osteosarcoma cells stably transfected with STAT5 fused to Green Fluorescence Protein (GFP). Stimulation of HT1080 cells with interferon-γ (IFN-γ) results in JAK1/JAK2-dependent nuclear translocation of STAT1-GFP, whereas stimulation of U-2 OS cells with recombinant human erythropoietin (rhEpo) results in JAK2-dependent nuclear translocation of STAT5-GFP, both of which can be quantified using the Cellomics Cyto/NucTrans software package. This assay may be used to provide an assessment of the nuclear-cytoplasmic differential (NCD) of STAT-GFP using Hoechst dye to define the boundaries of the nucleus.
U-2 OS osteosarcoma cells may be obtained from ATCC and can be cultured in standard RPMI medium supplemented with 10% FCS and 2 mM L-glutamine. Cells can be stably transfected with STAT5a-GFP using Lipofectamine following the manufacturers' protocol. 24 hours after transfection the medium can be replaced and selected in 400 μg/ml Geneticin. Subsequently, cells can be stably transfected with EpoR using Lipofectamine following the manufacturers' protocol. 24 hours after transfection the medium can be replaced and cells selected in 100 μg/ml Hygromycin B.
Compounds can be dissolved in DMSO to a final stock concentration of 10 mM and stored as aliquots at 4° C. Compounds may be pre-diluted in 100% DMSO at 10 mM, 3 mM 1 mM, 0.3 mM, 0.1 mM, 0.03 mM, 0.01 mM and 0.003 mM. Subsequently, compounds may be diluted in medium and added in 50 μl to the cells. The final compound concentrations tested may be 10 μM, 3 μM 1 μM, 0.3 μM, 0.1 μM, 0.03 μM, 0.01 μM and 0.003 μM and the final DMSO concentration can be 0.1%.
U-2 OS may be seeded at a cell density of 12,000 cells per well in clear-bottom black 96-well Packard View-Plates™. The following day, medium can be removed and replaced with medium containing either the vehicle (DMSO) or increasing concentrations of test compounds for 30 minutes at 37° C. Cells can then be stimulated for 1 hour by adding 10 μl per well of 50 U/ml rhEpo to obtain 5 U/ml of rhEpo as the final concentration. Following treatments, cells can fixed and processed as described above.
The plates can be read on a Cellomics® ArrayscanII automated fluorescence microscope plate reader equipped with a Mercury-Xenon white light illumination source and a Zeiss Axiovert inverted microscope, using the XF100 dichroic/emission filter cube and matching excitation filters, 10× magnification, and a 0.3 numerical aperture objective. Image acquisition and analysis can be performed using a customized protocol based on the ‘NuclearTranslocation’ Bioapplication. For each well, multiple images (fields) can be acquired until a minimum of 1000 cells are counted using two 2 channels: Channel 1 (Hoechst)=focus+nuclear mask, Channel 2 (GFP)=signal quantification in mask areas as outlined below. Nuclei may be first identified based on the Hoechst staining and a mask generated for each nucleus that then serves as a template to generate a circle (eroded inwards by 1 pixel) and a 3 pixel-wide collar-like ring (off-set outwards by 1 pixel), in which the nuclear and cytoplasmic intensity of GFP, respectively, are quantified in the corresponding channel. High content analysis yields numerous measurements per cell and the GFP intensity differential between the nuclear and the cytoplasmic masks may be chosen as a measure of sub-cellular STAT-GFP relocation. The resulting values may be averaged for all cells in the well to return a single measurement plus standard deviation. […]

[2] = molecular target: T1, GST-JAK2(808-1132) (Homo sapiens, UniProt O60674); experiment: JAK2 kinase assay (Caliper mobility shift, LabChip 3000); type: biochemical
T1 construct: GST-JAK2(808-1132); purchased Invitrogen (Carlsbad, USA) #4288
T1 sequence (O60674 808-1132): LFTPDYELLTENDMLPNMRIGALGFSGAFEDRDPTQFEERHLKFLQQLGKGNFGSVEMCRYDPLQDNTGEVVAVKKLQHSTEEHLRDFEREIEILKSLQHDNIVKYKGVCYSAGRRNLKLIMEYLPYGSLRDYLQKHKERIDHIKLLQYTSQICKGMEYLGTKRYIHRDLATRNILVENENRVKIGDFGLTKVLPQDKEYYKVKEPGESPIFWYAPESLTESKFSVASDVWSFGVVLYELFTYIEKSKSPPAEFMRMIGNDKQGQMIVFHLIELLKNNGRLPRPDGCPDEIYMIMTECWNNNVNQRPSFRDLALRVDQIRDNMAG
Procedure, shortened: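 Eight-point compound series (final 10–0.003 μM) tested on purchased GST-JAK2 kinase domain (808-1132). Peptide FITC-JAK3tide plus ATP reacted 60 min, 30 °C, then quenched with EDTA; turnover from charge-based separation of substrate and product.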

| Structure (SMILES) | pIC50 [1] | pIC50 [2] |
| --- | --- | --- |
| Cc1ccc(Nc2ncc3ccn(-c4cc(F)c(CN5CCCC5=O)c(F)c4)c3n2)cc1CN1CCNCC1 [Example 463, 1-{2,6-Difluoro-4-[2-(4-methyl-3-piperazin-1-ylmethyl-phenylamino)-pyrrolo[2,3-d]pyrimidin-7-yl]-benzyl}-pyrrolidin-2-one] | 7.32 | ≥ 8.52 |
| CC(C)(C)NS(=O)(=O)c1ccc(-n2ccc3cnc(Nc4ccc(OCCN5CCCC5)cc4)nc32)cc1 [Example 363, N-tert-Butyl-4-{2-[4-(2-pyrrolidin-1-yl-ethoxy)-phenylamino]-pyrrolo[2,3-d]pyrimidin-7-yl}-benzenesulfonamide] | 7.96 | 8.49 |
| C[C@@H]1CN(Cc2ccc(Nc3ncc4ccn(-c5cc(F)c(CN6CCCC6=O)c(F)c5)c4n3)cc2)C[C@H](C)N1 [Example 462, 1-(4-{2-[4-(cis-3,5-Dimethyl-piperazin-1-ylmethyl)-phenylamino]-pyrrolo[2,3-d]pyrimidin-7-yl}-2,6-difluoro-benzyl)-pyrrolidin-2-one] | 7.29 | ≥ 8.52 |
| CN1CCN(Cc2cc(Nc3ncc4ccn(-c5cc(F)c(CN6CCOCC6)c(F)c5)c4n3)ccn2)CC1 [Example 384, [7-(3,5-Difluoro-4-morpholin-4-ylmethyl-phenyl)-7H-pyrrolo[2,3-d]pyrimidin-2-yl]-[2-(4-methyl-piperazin-1-ylmethyl)-pyridin-4-yl]-amine] | 7.92 | ≥ 8.52 |
| Cc1ccc(Nc2ncc3ccn(-c4cc(F)c(CN5CCS(=O)(=O)CC5)c(F)c4)c3n2)cc1CN1CCNCC1 [Example 428, {7-[4-(1,1-Dioxido-thiomorpholin-4-ylmethyl)-3,5-difluoro-phenyl]-7H-pyrrolo[2,3-d]pyrimidin-2-yl}-(4-methyl-3-piperazin-1-ylmethyl-phenyl)-amine] | 7.97 | ≥ 8.52 |
| C[C@@H]1CN(c2ncc(Nc3ncc4ccn(-c5cc(F)c(CN6CCOCC6)c(F)c5)c4n3)cc2C#N)C[C@H](C)N1 [Example 490, 5-[7-(3,5-Difluoro-4-morpholin-4-ylmethyl-phenyl)-7H-pyrrolo[2,3-d]pyrimidin-2-ylamino]-2-(cis-3,5-dimethyl-piperazin-1-yl)-nicotinonitrile] | 7.85 | 8.47 |
| Fc1cc(-n2ccc3cnc(Nc4ccnc(OCC5CCNCC5)c4)nc32)cc(F)c1CN1CCOCC1 [Example 392, [7-(3,5-Difluoro-4-morpholin-4-ylmethyl-phenyl)-7H-pyrrolo[2,3-d]pyrimidin-2-yl]-[2-(piperidin-4-ylmethoxy)-pyridin-4-yl]-amine] | 7.17 | ≥ 8.52 |
| Cc1cc(Nc2ncc3ccn(-c4cc(F)c(CN5CCOCC5)c(F)c4)c3n2)cnc1N1CCNCC(F)(F)C1 [Example 512, [6-(6,6-Difluoro-[1,4]diazepan-1-yl)-5-methyl-pyridin-3-yl]-[7-(3,5-difluoro-4-morpholin-4-ylmethyl-phenyl)-7H-pyrrolo[2,3-d]pyrimidin-2-yl]-amine] | 7.85 | ≥ 8.52 |
| C[C@@H]1CN[C@@H](C)CN1c1ccc(Nc2ncc3ccn(-c4ccc(S(=O)(=O)NC(C)(C)C)cc4)c3n2)cn1 (racemic) [Example 356, N-tert-Butyl-4-{2-[6-((2R,5S)-2,5-dimethyl-piperazin-1-yl)-pyridin-3-ylamino]-pyrrolo[2,3-d]pyrimidin-7-yl}-benzenesulfonamide] | 8.23 | 8.49 |
| Cc1ccc(Nc2ncc3ccn(-c4cc(F)c(CN5CCOCC5)c(F)c4)c3n2)cc1CN1C[C@@H](C)N[C@@H](C)C1 [Example 355, [7-(3,5-Difluoro-4-morpholin-4-yl methyl-phenyl)-7H-pyrrolo[2,3-d]pyrimidin-2-yl]-[3-(cis-3,5-dimethyl-piperazin-1-ylmethyl)-4-methyl-phenyl]-amine] | 8.28 | 8.43 |
| Fc1cc(-n2ccc3cnc(Nc4ccc(CN5CCC(F)(F)C5)cc4)nc32)cc(F)c1CN1CCOCC1 [Example 471, [7-(3,5-Difluoro-4-morpholin-4-ylmethyl-phenyl)-7H-pyrrolo[2,3-d]pyrimidin-2-yl]-[4-(3,3-difluoro-pyrrolidin-1-ylmethyl)-phenyl]-amine] | 7.50 | 8.46 |
| CN1CCN(Cc2ccc(Nc3ncc4ccn(-c5cc(F)c(CN6CCOCC6)c(F)c5)c4n3)cn2)CC1 [Example 472, [7-(3,5-Difluoro-4-morpholin-4-yl methyl-phenyl)-7H-pyrrolo[2,3-d]pyrimidin-2-yl]-[6-(4-methyl-piperazin-1-ylmethyl)-pyridin-3-yl]-amine] | 7.04 | 8.44 |
| Fc1cc(-n2ccc3cnc(Nc4ccnc(N5CCN(C6CC6)CC5)c4)nc32)cc(F)c1CN1CCOCC1 [Example 456, [2-(4-Cyclopropyl-piperazin-1-yl)-pyridin-4-yl]-[7-(3,5-difluoro-4-morpolin-4-ylmethyl-phenyl)-7H-pyrrolo[2,3-d]pyrimidin-2-yl]-amine] | 8.72 | ≥ 8.52 |
| Cc1ccc(Nc2ncc3ccn(-c4cc(F)c(CN5CCOCC5)c(F)c4)c3n2)cc1CN1CCNCC1=O [Example 399, 1-{5-[7-(3,5-Difluoro-4-morpholin-4-ylmethyl-phenyl)-7H-pyrrolo[2,3-d]pyrimidin-2-ylamino]-2-methyl-benzyl}-piperazin-2-one] | 8.18 | ≥ 8.52 |
| Fc1cc(-n2ccc3cnc(Nc4ccc(C5CCNCC5)nc4)nc32)cc(F)c1CN1CCOCC1 [Example 501, [7-(3,5-Difluoro-4-morpholin-4-ylmethyl-phenyl)-7H-pyrrolo[2,3-d]pyrimidin-2-yl]-(1,2′,3′,4′,5′,6′-hexahydro-[2,4′]bipyridinyl-5-yl)-amine] | 7.42 | ≥ 8.52 |
| Fc1cc(-n2ccc3cnc(Nc4ccc([C@H]5CNCCN5)cc4)nc32)cc(F)c1CN1CCOCC1 [Example 474, [7-(3,5-Difluoro-4-morpholin-4-ylmethyl-phenyl)-7H-pyrrolo[2,3-d]pyrimidin-2-yl]-((S)-4-piperazin-2-yl-phenyl)-amine] | 8.07 | ≥ 8.52 |
| Cc1ccc(Nc2ncc3ccn(-c4cc(F)c(CN5CCOCC5)c(F)c4)c3n2)cc1CN1CCN(C)CC1=O [Example 415, 1-{5-[7-(3,5-Difluoro-4-morpholin-4-ylmethyl-phenyl)-7H-pyrrolo[2,3-d]pyrimidin-2-ylamino]-2-methyl-benzyl}-4-methyl-piperazin-2-one] | 8.16 | ≥ 8.52 |
| O=C1CN(c2ncc(Nc3ncc4ccn(-c5cc(F)c(CN6CCOCC6)c(F)c5)c4n3)cc2Cl)CCN1 [Example 491, 4-{3-Chloro-5-[7-(3,5-difluoro-4-morpholin-4-ylmethyl-phenyl)-7H-pyrrolo[2,3-d]pyrimidin-2-ylamino]-pyridin-2-yl}-piperazin-2-one] | 7.82 | ≥ 8.52 |
| CN1CCN(c2ccc(Nc3ncc4ccn(-c5cc(F)c(CN6CCOCC6)c(F)c5)c4n3)nc2)CC1 [Example 377, [7-(3,5-Difluoro-4-morpholin-4-ylmethyl-phenyl)-7H-pyrrolo[2,3-d]pyrimidin-2-yl]-[5-(4-methyl-piperazin-1-yl)-pyridin-2-yl]-amine] | < 5.59 | 7.31 |
